Experimental data as given in patent US11590139B2, “Substituted aminopurine compounds, compositions thereof, and methods of treatment therewith” (Signal Pharmaceuticals, LLC, priority 2014, dated 2023).

Tested on: Lox-IMVI melanoma cell line
Test: Lox-IMVI anti-proliferative assay (growth inhibition, Cell Titer-Glo)
Assay type: cell-based, human
Settings: Homo sapiens; IC50 activity level in the cell-based Lox-IMVI anti-proliferative assay; read-out: Activity
Method in brief: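 Growth inhibition is assessed over 72 h in RPMI + 10% FBS at 0.2% DMSO, with ATP-based luminescence used as the viability measure. IC50 is fitted from normalized dose-response data.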

**Q.** NC(=O)[C@H]1CC[C@@H](n2c(Nc3c(F)ccc(F)c3F)nc3cnc(NC4CCCC4)nc32)CC1 [Example 141, (1s,4s)-4-(2-(cyclopentylamino)-8-(2,3,6-trifluorophenylamino)-9H-purin-9-yl)cyclohexanecarboxamide] was tested. Which IC50 did it give?
**A.** 500 to 1000 nM

**Q.** Which IC50 does the source give for NC(=O)[C@H]1CC[C@@H](n2c(Nc3c(F)cccc3F)nc3cnc(NC4CCC4)nc32)CC1 [Example 42] here?
**A.** > 1000 nM

**Q.** Which IC50 does the source give for CC[C@H](CO)Nc1ncc2nc(Nc3c(Cl)cc(Cl)cc3Cl)n([C@H]3CC[C@@H](C(N)=O)CC3)c2n1 [Example 137, (1S,4s)-4-(2-((R)-1-hydroxybutan-2-ylamino)-8-(2,4,6-trichlorophenylamino)-9H-purin-9-yl)cyclohexanecarboxamide] here?
**A.** > 1000 nM

**Q.** NC(=O)[C@H]1CC[C@@H](n2c(Nc3c(F)cc(F)cc3Cl)nc3cnc(N[C@@H]4CC[C@@H](O)C4)nc32)CC1 [Example 210, (1S,4s)-4-(8-(2-chloro-4,6-difluorophenylamino)-2-((1R,3R)-3-hydroxycyclopentylamino)-9H-purin-9-yl)cyclohexanecarboxamide] was tested. Which IC50 did it give?
**A.** > 1000 nM

**Q.** NC(=O)[C@H]1CC[C@@H](n2c(Nc3c(Cl)cc(Cl)cc3Cl)nc3cnc(N[C@@H]4CCOC[C@H]4F)nc32)CC1 [Example 274, (1S,4s)-4-(2-((3S,4R)-3-fluorotetrahydro-2H-pyran-4-ylamino)-8-(2,4,6-trichlorophenylamino)-9H-purin-9-yl)cyclohexanecarboxamide] was tested. Which IC50 did it give?
**A.** < 250 nM

**Q.** Which IC50 does the source give for C[C@@H]1CC[C@@H](Nc2ncc3nc(Nc4c(F)cccc4Cl)n([C@H]4CC[C@@H](C(N)=O)CC4)c3n2)C[C@H]1O [Example 342, (1S,4s)-4-(8-(2-chloro-6-fluorophenylamino)-2-((1R,3R,4R)-3-hydroxy-4-methylcyclohexylamino)-9H-purin-9-yl)cyclohexanecarboxamide] here?
**A.** > 1000 nM

**Q.** With NC(=O)[C@H]1CC[C@@H](n2c(Nc3ccccc3Cl)nc3cnc(NC4CCCC4)nc32)CC1 [Example 93, (1s,4s)-4-(8-(2-chlorophenylamino)-2-(cyclopentylamino)-9H-purin-9-yl)cyclohexanecarboxamide] as the molecule, how does the IC50 read?
**A.** > 1000 nM

**Q.** For NC(=O)[C@H]1CC[C@@H](n2c(Nc3c(F)cccc3F)nc3cnc(NC4CC(F)(F)C4)nc32)CC1 [Example 227, (1s,4s)-4-(2-(3,3-difluorocyclobutylamino)-8-(2,6-difluorophenylamino)-9H-purin-9-yl)cyclohexanecarboxamide], which IC50 is on record?
**A.** > 1000 nM

**Q.** How did the IC50 turn out when N#Cc1ccc(Nc2nc3cnc(NC4CCOCC4)nc3n2[C@H]2CC[C@@H](C(N)=O)CC2)c(Cl)c1 [Example 248, (1s,4s)-4-(8-(2-chloro-4-cyanophenylamino)-2-(tetrahydro-2H-pyran-4-ylamino)-9H-purin-9-yl)cyclohexanecarboxamide] was run?
**A.** 500 to 1000 nM

**Q.** Which IC50 does the source give for C[C@@H](CO)Nc1ncc2nc(Nc3c(Cl)cc(C#N)cc3Cl)n([C@H]3CC[C@@H](C(N)=O)CC3)c2n1 [Example 366, (1R,4s)-4-(8-(2,6-dichloro-4-cyanophenylamino)-2-((S)-1-hydroxypropan-2-ylamino)-9H-purin-9-yl)cyclohexanecarboxamide] here?
**A.** < 250 nM

Same assay, conditions: Homo sapiens; Lox-IMVI anti-proliferative assay, IC50 activity level; read-out: Activity

**Q.** For C[C@]1(C(N)=O)CC[C@@H](n2c(Nc3c(F)cc(Cl)cc3F)nc3cnc(NC4CCOCC4)nc32)CC1 [Example 521, (1s,4s)-4-(8-(4-chloro-2,6-difluorophenylamino)-2-(tetrahydro-2H-pyran-4-ylamino)-9H-purin-9-yl)-1-methylcyclohexanecarboxamide], which IC50 is on record?
**A.** < 250 nM

**Q.** Which IC50 does the source give for C[C@]1(O)CCC[C@@H](Nc2ncc3nc(Nc4c(F)cc(Cl)cc4F)n([C@H]4CC[C@@H](C(N)=O)CC4)c3n2)C1 [Example 426, (1S,4s)-4-(8-(4-chloro-2,6-difluorophenylamino)-2-((1R,3S)-3-hydroxy-3-methylcyclohexylamino)-9H-purin-9-yl)cyclohexanecarboxamide] here?
**A.** > 1000 nM

**Q.** How did the IC50 turn out when NC(=O)[C@H]1CC[C@@H](n2c(Nc3c(F)cc(F)cc3F)nc3cnc(N[C@H]4CCCC[C@H]4O)nc32)CC1 [Example 512, (1R,4s)-4-(2-((1S,2R)-2-hydroxycyclohexylamino)-8-(2,4,6-trifluorophenylamino)-9H-purin-9-yl)cyclohexanecarboxamide] was run?
**A.** > 1000 nM

**Q.** How did the IC50 turn out when C[C@]1(C(N)=O)CC[C@H](n2c(Nc3c(F)cc(F)cc3Cl)nc3cnc(NC4CCCC4)nc32)CC1 [Example 491, (1r,4r)-4-(8-(2-chloro-4,6-difluorophenylamino)-2-(cyclopentylamino)-9H-purin-9-yl)-1-methylcyclohexanecarboxamide] was run?
**A.** > 1000 nM

**Q.** Which IC50 does the source give for NC(=O)[C@H]1CC[C@@H](n2c(Nc3c(F)cc(F)cc3F)nc3cnc(N[C@@H]4CCC(F)(F)C4)nc32)CC1 [Example 545, (1S,4s)-4-(2-((R)-3,3-difluorocyclopentylamino)-8-(2,4,6-trifluorophenylamino)-9H-purin-9-yl)cyclohexanecarboxamide] here?
**A.** < 250 nM

**Q.** Which IC50 does the source give for C[C@]1(C(N)=O)CC[C@@H](n2c(Nc3c(F)cc(C#N)cc3Cl)nc3cnc(N[C@@H]4CCC[C@H](O)C4)nc32)CC1 [Example 568, (1S,4s)-4-(8-(2-chloro-4-cyano-6-fluorophenylamino)-2-((1R,3S)-3-hydroxycyclohexylamino)-9H-purin-9-yl)-1-methylcyclohexanecarboxamide] here?
**A.** 250 to 500 nM

**Q.** With C[C@]1(C(N)=O)CC[C@@H](n2c(Nc3c(F)cc(Cl)cc3F)nc3cnc(NC4CC(F)(F)C4)nc32)CC1 [Example 581, (1s,4s)-4-(8-(4-chloro-2,6-difluorophenylamino)-2-(3,3-difluorocyclobutylamino)-9H-purin-9-yl)-1-methylcyclohexanecarboxamide] as the molecule, how does the IC50 read?
**A.** < 250 nM

**Q.** For C[C@]1(C(N)=O)CC[C@@H](n2c(Nc3c(F)cc(Cl)cc3Cl)nc3cnc(NC4CCCC4)nc32)CC1 [Example 557, (1s,4s)-4-(2-(cyclopentylamino)-8-(2,4-dichloro-6-fluorophenylamino)-9H-purin-9-yl)-1-methylcyclohexanecarboxamide], which IC50 is on record?
**A.** < 250 nM

**Q.** For C[C@H]1COCC[C@H]1Nc1ncc2nc(Nc3c(F)cc(Cl)cc3Cl)n([C@H]3CC[C@@H](C(N)=O)CC3)c2n1 [Example 505, (1S,4s)-4-(8-(2,4-dichloro-6-fluorophenylamino)-2-((3R,4R)-3-methyltetrahydro-2H-pyran-4-ylamino)-9H-purin-9-yl)cyclohexanecarboxamide], which IC50 is on record?
**A.** 250 to 500 nM

**Q.** With C[C@]1(C(N)=O)CC[C@H](n2c(Nc3c(Cl)cc(Cl)cc3Cl)nc3cnc(NC4CCCC4)nc32)CC1 [Example 490, (1r,4r)-4-(2-(cyclopentylamino)-8-(2,4,6-trichlorophenylamino)-9H-purin-9-yl)-1-methylcyclohexanecarboxamide] as the molecule, how does the IC50 read?
**A.** > 1000 nM

**Q.** With NC(=O)[C@H]1CC[C@@H](n2c(Nc3c(Cl)cc(Cl)cc3Cl)nc3cnc(N[C@@H]4CCCC[C@H]4O)nc32)CC1 [Example 468, (1S,4s)-4-(2-((1R,2R)-2-hydroxycyclohexylamino)-8-(2,4,6-trichlorophenylamino)-9H-purin-9-yl)cyclohexanecarboxamide] as the molecule, how does the IC50 read?
**A.** > 1000 nM

**Q.** With NC(=O)[C@H]1CC[C@@H](n2c(Nc3c(Cl)cc(F)cc3Cl)nc3cnc(N[C@@H]4CCCC[C@H]4O)nc32)CC1 [Example 469, (1S,4s)-4-(8-(2,6-dichloro-4-fluorophenylamino)-2-((1R,2R)-2-hydroxycyclohexylamino)-9H-purin-9-yl)cyclohexanecarboxamide] as the molecule, how does the IC50 read?
**A.** > 1000 nM

Same assay, conditions: Homo sapiens; Lox-IMVI melanoma cell line, anti-proliferative assay; read-out: Activity (IC50 activity level)

**Q.** N#Cc1cc(F)c(Nc2nc3cnc(N[C@H]4CCC[C@@H](O)C4)nc3n2[C@H]2CC[C@@H](C(N)=O)CC2)c(Cl)c1 [Example 687, (1R,4s)-4-(8-(2-chloro-4-cyano-6-fluorophenylamino)-2-((1S,3R)-3-hydroxycyclohexylamino)-9H-purin-9-yl)cyclohexanecarboxamide] was tested. Which IC50 did it give?
**A.** > 1000 nM

**Q.** NC(=O)[C@H]1CC[C@@H](n2c(Nc3c(F)cc(Cl)cc3F)nc3cnc(NC[C@@H]4CCCC[C@@H]4O)nc32)CC1 [Example 657, (1R,4s)-4-(8-(4-chloro-2,6-difluorophenylamino)-2-(((1S,2S)-2-hydroxycyclohexyl)methylamino)-9H-purin-9-yl)cyclohexanecarboxamide] was tested. Which IC50 did it give?
**A.** > 1000 nM

**Q.** For C[C@@H]1COCC[C@H]1Nc1ncc2nc(Nc3c(F)cc(Cl)cc3F)n([C@H]3CC[C@@](C)(C(N)=O)CC3)c2n1 [Example 722, (1S,4s)-4-(8-(4-chloro-2,6-difluorophenylamino)-2-((3S,4R)-3-methyltetrahydro-2H-pyran-4-ylamino)-9H-purin-9-yl)-1-methylcyclohexanecarboxamide], which IC50 is on record?
**A.** < 250 nM

**Q.** Which IC50 does the source give for C[C@]1(C(N)=O)CC[C@@H](n2c(Nc3c(F)cc(Cl)cc3Cl)nc3cnc(N[C@@H]4CC[C@@H](O)C4)nc32)CC1 [Example 637, (1S,4s)-4-(8-(2,4-dichloro-6-fluorophenylamino)-2-((1R,3R)-3-hydroxycyclopentylamino)-9H-purin-9-yl)-1-methylcyclohexanecarboxamide] here?
**A.** < 250 nM

**Q.** With NC(=O)[C@H]1CC[C@@H](n2c(Nc3c(Cl)cc(Cl)cc3Cl)nc3cnc(N[C@@H]4CCCN(C(=O)Nc5ccccc5)C4)nc32)CC1 [Example 779, (R)-3-(9-((1s,4S)-4-carbamoylcyclohexyl)-8-(2,4,6-trichlorophenylamino)-9H-purin-2-ylamino)-N-phenylpiperidine-1-carboxamide] as the molecule, how does the IC50 read?
**A.** 500 to 1000 nM

**Q.** Which IC50 does the source give for C[C@]1(C(N)=O)CC[C@@H](n2c(Nc3c(Cl)cc(Cl)cc3Cl)nc3cnc(NC4CCC4)nc32)CC1 [Example 603, (1s,4s)-4-(2-(cyclobutylamino)-8-(2,4,6-trichlorophenylamino)-9H-purin-9-yl)-1-methylcyclohexanecarboxamide] here?
**A.** < 250 nM

**Q.** NC(=O)[C@H]1CC[C@@H](n2c(Nc3c(Cl)cc(Br)cc3Cl)nc3cnc(NC4CCC(F)(F)CC4)nc32)CC1 [Example 691, (1s,4s)-4-(8-(4-bromo-2,6-dichlorophenylamino)-2-(4,4-difluorocyclohexylamino)-9H-purin-9-yl)cyclohexanecarboxamide] was tested. Which IC50 did it give?
**A.** 500 to 1000 nM
